Laboratory results as given in PMC9234961 (Journal of Medicinal Chemistry, 2022).
Where two headings read alike, the source gives them in different places.

Assays:
kinases (468) [1] = molecular target: kinases (468) (Homo sapiens, UniProt Q8IU85); details: CAMK1D; 1000 nM
kinases (468) [2] = molecular target: kinases (468) (Homo sapiens, UniProt Q00537); details: PCTK2 (CDK17); 1000 nM
kinases (468) [3] = molecular target: kinases (468) (Homo sapiens, UniProt O95819); details: MAP4K4; 1000 nM
kinases (468) [4] = molecular target: kinases (468) (Homo sapiens, UniProt P29323); details: EPHB2; 1000 nM
kinases (468) [5] = molecular target: kinases (468) (Homo sapiens, UniProt Q59H18); details: kinase TNNI3K (Entrez TNNI3K); compound concentration 1000 nM
kinases (468) [6] = molecular target: kinases (468) (Homo sapiens, UniProt Q9Y2I7); details: PIKFYVE; 1000 nM
kinases (468) [7] = molecular target: kinases (468) (Homo sapiens, UniProt O94806); details: PRKD3; 1000 nM
kinases (468) [8] = molecular target: kinases (468) (Homo sapiens, UniProt Q00535); details: CDK5; 1000 nM
kinases (468) [9] = molecular target: kinases (468) (Homo sapiens, UniProt P57078); details: kinase RIPK4 (Entrez RIPK4); compound concentration 1000 nM
kinases (468) [10] = molecular target: kinases (468) (Homo sapiens, UniProt P35916); details: FLT4; 1000 nM
kinases (468) [11] = molecular target: kinases (468) (Homo sapiens, UniProt Q14004); details: CDC2L5 (CDK13); 1000 nM
kinases (468) [12] = molecular target: kinases (468) (Homo sapiens, UniProt P36888, N841I); details: FLT3(N841I); 1000 nM
kinases (468) [13] = molecular target: kinases (468) (Homo sapiens, UniProt Q86V86); details: PIM3; 1000 nM
kinases (468) [14] = molecular target: kinases (468) (Homo sapiens, UniProt P53355); details: DAPK1; 1000 nM
kinases (468) [15] = molecular target: kinases (468) (Homo sapiens, UniProt Q9BWU1); details: CDK11 (CDK19); 1000 nM
kinases (468) [16] = molecular target: kinases (468) (Homo sapiens, UniProt Q9Y4K4); details: MAP4K5; 1000 nM
kinases (468) [17] = molecular target: kinases (468) (Homo sapiens, UniProt P10721, V559D); details: KIT(V559D); 1000 nM
kinases (468) [18] = molecular target: kinases (468) (Homo sapiens, UniProt Q9NRM7); details: LATS2; 1000 nM
kinases (468) [19] = molecular target: kinases (468) (Homo sapiens, UniProt P07332); details: FES; 1000 nM
kinases (468) [20] = molecular target: kinases (468) (Homo sapiens, UniProt P09619); details: PDGFRB; 1000 nM
kinases (468) [21] = molecular target: kinases (468) (Homo sapiens, UniProt P07948); details: LYN; 1000 nM
kinases (468) [22] = molecular target: kinases (468) (Homo sapiens, UniProt P10721, A829P); details: KIT(A829P); 1000 nM
kinases (468) [23] = molecular target: kinases (468) (Homo sapiens, UniProt P51957); details: NEK4; 1000 nM
kinases (468) [24] = molecular target: kinases (468) (Homo sapiens, UniProt Q9HBH9); details: MKNK2; 1000 nM
kinases (468) [25] = molecular target: kinases (468) (Homo sapiens, UniProt P49760); details: CLK2; 1000 nM
kinases (468) [26] = molecular target: kinases (468) (Homo sapiens, UniProt P25098); details: GRK2 (ADRBK1); 1000 nM
kinases (468) [27] = molecular target: kinases (468) (Homo sapiens, UniProt Q15759); details: p38-beta (MAPK11); 1000 nM
kinases (468) [28] = molecular target: kinases (468) (Homo sapiens, UniProt P51817); details: PRKX; 1000 nM
kinases (468) [29] = molecular target: kinases (468) (Homo sapiens, UniProt P42336); details: PIK3CA; 1000 nM
kinases (468) [30] = molecular target: kinases (468) (Homo sapiens, UniProt Q8N5S9); details: CAMKK1; 1000 nM
kinases (468) [31] = molecular target: kinases (468) (Homo sapiens, UniProt P51812); details: compound concentration 1000 nM
kinases (468) [32] = molecular target: kinases (468) (Homo sapiens, UniProt Q9HAZ1); details: CLK4; 1000 nM
kinases (468) [33] = molecular target: kinases (468) (Plasmodium falciparum, UniProt P62344); details: PFCDPK1(P.falciparum) (CDPK1); 1000 nM
kinases (468) [34] = molecular target: kinases (468) (Homo sapiens, UniProt P35590); details: kinase TIE1 (Entrez TIE1); compound concentration 1000 nM
kinases (468) [35] = molecular target: kinases (468) (Homo sapiens, UniProt Q16659); details: ERK3 (MAPK6); 1000 nM

Sequence of kinases (468) (Homo sapiens, UniProt P51812) (P51812 whole entry): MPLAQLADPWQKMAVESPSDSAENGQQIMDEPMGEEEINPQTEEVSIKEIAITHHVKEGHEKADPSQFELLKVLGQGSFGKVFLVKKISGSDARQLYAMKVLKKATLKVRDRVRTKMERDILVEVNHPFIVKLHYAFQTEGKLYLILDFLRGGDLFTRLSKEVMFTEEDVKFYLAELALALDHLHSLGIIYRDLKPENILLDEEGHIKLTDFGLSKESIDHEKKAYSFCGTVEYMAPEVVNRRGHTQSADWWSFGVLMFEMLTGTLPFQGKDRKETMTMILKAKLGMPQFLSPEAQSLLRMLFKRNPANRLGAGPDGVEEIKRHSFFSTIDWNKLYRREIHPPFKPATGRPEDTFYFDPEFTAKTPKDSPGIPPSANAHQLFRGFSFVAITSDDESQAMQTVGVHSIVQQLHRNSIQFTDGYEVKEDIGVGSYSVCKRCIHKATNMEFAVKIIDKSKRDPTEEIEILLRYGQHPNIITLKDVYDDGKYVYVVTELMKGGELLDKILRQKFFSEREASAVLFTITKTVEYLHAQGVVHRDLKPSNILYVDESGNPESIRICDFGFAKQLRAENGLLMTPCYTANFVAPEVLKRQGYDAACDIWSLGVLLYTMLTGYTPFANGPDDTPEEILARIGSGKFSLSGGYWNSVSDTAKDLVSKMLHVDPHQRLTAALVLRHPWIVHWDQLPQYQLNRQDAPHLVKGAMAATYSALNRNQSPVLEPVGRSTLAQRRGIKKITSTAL
Sequence of kinases (468) (Homo sapiens, UniProt Q9BWU1) (Q9BWU1 whole entry): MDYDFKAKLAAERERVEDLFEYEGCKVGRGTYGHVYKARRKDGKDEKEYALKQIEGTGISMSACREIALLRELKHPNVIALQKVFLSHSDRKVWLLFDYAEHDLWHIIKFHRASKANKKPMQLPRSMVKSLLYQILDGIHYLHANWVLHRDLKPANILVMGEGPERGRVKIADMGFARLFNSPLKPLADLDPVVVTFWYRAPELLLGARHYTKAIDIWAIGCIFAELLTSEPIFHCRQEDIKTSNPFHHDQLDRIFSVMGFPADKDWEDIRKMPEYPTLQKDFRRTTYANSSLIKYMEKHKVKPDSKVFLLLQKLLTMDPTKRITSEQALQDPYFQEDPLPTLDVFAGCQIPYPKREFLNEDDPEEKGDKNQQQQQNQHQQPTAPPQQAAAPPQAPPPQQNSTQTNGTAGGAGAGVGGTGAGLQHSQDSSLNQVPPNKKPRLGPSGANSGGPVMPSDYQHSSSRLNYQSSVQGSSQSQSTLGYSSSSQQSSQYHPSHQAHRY
Sequence of kinases (468) (Homo sapiens, UniProt P42336) (P42336 whole entry): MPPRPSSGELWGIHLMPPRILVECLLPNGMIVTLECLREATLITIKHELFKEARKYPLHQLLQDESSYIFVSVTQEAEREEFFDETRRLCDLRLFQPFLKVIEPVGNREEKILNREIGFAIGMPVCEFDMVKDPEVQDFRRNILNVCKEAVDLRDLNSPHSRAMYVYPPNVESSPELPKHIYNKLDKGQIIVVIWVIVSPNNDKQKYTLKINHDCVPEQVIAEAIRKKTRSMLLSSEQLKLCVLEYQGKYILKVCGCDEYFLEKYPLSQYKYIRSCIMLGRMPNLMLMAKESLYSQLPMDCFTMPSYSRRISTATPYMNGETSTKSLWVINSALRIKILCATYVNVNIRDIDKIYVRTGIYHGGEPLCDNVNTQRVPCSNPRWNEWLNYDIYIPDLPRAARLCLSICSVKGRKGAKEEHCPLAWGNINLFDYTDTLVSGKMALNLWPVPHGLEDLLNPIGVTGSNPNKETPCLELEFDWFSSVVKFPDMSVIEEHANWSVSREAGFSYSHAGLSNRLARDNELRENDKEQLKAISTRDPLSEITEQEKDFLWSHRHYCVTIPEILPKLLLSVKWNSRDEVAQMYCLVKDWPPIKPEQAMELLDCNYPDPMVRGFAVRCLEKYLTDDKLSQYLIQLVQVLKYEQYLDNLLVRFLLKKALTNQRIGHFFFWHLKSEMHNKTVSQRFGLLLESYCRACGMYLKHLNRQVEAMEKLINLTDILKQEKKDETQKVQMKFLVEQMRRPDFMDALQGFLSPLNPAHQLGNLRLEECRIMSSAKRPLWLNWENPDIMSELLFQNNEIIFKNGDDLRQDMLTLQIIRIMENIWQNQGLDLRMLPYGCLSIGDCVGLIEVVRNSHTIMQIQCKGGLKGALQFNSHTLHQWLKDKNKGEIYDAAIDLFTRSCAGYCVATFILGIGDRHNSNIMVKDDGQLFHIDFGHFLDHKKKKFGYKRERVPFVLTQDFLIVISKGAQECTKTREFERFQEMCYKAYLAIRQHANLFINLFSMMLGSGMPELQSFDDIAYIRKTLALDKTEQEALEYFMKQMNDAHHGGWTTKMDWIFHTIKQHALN
Sequence of kinases (468) (Homo sapiens, UniProt Q8N5S9) (Q8N5S9 whole entry): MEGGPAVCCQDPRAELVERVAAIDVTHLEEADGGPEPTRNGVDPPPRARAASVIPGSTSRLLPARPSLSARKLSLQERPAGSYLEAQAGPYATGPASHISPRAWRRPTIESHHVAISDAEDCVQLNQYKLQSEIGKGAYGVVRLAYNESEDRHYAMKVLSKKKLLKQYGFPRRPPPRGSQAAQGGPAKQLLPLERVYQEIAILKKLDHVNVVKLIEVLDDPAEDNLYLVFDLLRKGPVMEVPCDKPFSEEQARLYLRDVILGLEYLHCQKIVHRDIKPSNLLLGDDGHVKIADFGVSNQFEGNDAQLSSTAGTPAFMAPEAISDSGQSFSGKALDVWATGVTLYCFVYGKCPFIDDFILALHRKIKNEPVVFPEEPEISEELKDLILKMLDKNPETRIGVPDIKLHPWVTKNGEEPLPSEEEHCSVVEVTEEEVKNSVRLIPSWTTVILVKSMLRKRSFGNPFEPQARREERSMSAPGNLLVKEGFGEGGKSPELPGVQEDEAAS
Sequence of kinases (468) (Homo sapiens, UniProt Q9Y2I7) (Q9Y2I7 whole entry): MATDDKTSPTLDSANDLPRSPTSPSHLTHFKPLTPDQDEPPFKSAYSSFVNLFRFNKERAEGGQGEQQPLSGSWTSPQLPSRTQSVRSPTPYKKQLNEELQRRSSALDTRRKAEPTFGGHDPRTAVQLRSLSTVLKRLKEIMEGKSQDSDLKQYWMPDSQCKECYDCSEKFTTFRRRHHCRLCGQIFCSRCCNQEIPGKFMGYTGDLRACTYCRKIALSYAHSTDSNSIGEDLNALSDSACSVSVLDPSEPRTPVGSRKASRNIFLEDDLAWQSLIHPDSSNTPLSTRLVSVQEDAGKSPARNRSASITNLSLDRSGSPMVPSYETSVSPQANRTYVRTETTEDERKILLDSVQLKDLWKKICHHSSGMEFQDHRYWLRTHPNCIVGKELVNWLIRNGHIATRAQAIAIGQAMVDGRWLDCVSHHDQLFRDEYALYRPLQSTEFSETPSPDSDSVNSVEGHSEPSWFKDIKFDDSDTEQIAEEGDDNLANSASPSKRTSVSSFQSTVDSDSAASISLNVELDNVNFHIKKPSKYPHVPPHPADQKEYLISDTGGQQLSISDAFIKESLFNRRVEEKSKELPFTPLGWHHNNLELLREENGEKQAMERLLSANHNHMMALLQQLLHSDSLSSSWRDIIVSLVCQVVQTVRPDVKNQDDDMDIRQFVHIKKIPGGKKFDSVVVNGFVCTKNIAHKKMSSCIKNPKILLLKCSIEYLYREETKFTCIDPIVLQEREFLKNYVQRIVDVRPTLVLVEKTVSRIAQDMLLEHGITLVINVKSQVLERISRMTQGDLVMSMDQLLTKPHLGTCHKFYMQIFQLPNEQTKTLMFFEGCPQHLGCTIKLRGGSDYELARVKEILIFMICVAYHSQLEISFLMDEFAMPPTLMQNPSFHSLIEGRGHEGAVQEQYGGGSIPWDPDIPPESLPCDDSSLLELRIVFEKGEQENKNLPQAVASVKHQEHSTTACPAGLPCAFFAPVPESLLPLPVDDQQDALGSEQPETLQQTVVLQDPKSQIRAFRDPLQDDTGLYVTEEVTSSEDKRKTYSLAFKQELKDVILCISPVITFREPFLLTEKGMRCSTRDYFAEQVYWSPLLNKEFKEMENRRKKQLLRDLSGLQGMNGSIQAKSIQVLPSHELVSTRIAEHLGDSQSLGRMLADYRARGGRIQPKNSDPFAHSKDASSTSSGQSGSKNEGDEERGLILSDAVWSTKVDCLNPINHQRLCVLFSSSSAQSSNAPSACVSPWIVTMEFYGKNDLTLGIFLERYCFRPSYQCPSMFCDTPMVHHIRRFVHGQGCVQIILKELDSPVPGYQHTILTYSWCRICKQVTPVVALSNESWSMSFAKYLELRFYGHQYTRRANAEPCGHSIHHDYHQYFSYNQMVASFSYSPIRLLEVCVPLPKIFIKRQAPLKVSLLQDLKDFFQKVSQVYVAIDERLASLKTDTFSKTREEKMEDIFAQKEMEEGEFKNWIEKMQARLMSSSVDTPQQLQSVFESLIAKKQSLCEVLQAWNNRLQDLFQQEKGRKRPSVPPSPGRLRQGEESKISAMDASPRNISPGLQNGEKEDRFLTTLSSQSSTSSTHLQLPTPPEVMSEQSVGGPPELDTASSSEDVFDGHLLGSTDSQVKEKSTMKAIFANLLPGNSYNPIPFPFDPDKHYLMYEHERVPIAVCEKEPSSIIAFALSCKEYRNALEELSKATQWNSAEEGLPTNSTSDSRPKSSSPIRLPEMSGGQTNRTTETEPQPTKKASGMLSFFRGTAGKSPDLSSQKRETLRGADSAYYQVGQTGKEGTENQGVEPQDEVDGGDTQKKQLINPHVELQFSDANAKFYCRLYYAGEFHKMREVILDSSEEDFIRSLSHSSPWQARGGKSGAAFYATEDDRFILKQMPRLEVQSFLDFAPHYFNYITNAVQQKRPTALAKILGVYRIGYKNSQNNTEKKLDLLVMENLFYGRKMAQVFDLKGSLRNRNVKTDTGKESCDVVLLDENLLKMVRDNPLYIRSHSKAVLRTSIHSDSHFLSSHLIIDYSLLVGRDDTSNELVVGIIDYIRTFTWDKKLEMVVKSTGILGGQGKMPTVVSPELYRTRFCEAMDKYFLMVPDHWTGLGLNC

C[C@H]1C[C@@H](O)CN(c2ncc(Cl)c(Nc3ccc4c(c3)c3c(c(=O)n4C)OCC(F)(F)[C@H](C4CC4)N3)n2)C1 [CCT373566_9A]
Percent Control (kinases (468) [1]): 92%
Percent Control (kinases (468) [2]): 95%
Percent Control (kinases (468) [3]): 87%
Percent Control (kinases (468) [4]): 96%
Percent Control (kinases (468) [5]): 100%
Percent Control (kinases (468) [6]): 83%
Percent Control (kinases (468) [7]): 75%
Percent Control (kinases (468) [8]): 97%
Percent Control (kinases (468) [9]): 100%
Percent Control (kinases (468) [10]): 100%
Percent Control (kinases (468) [11]): 99%
Percent Control (kinases (468) [12]): 94%
Percent Control (kinases (468) [13]): 100%
Percent Control (kinases (468) [14]): 83%
Percent Control (kinases (468) [15]): 99%
Percent Control (kinases (468) [16]): 85%
Percent Control (kinases (468) [17]): 100%
Percent Control (kinases (468) [18]): 96%
Percent Control (kinases (468) [19]): 100%
Percent Control (kinases (468) [20]): 98%
Percent Control (kinases (468) [21]): 88%
Percent Control (kinases (468) [22]): 100%
Percent Control (kinases (468) [23]): 91%
Percent Control (kinases (468) [24]): 100%
Percent Control (kinases (468) [25]): 68%
Percent Control (kinases (468) [26]): 41%
Percent Control (kinases (468) [27]): 100%
Percent Control (kinases (468) [28]): 100%
Percent Control (kinases (468) [29]): 100%
Percent Control (kinases (468) [30]): 99%
Percent Control (kinases (468) [31]; kinase RSK2(Kin.Dom.1-N-terminal) (Entrez RPS6KA3)): 100%
Percent Control (kinases (468) [31]; kinase RSK2(Kin.Dom.2-C-terminal) (Entrez RPS6KA3)): 100%
Percent Control (kinases (468) [32]): 91%
Percent Control (kinases (468) [33]): 69%
Percent Control (kinases (468) [34]): 100%
Percent Control (kinases (468) [35]): 100%
